Experimental findings from BindingDB's records for patent US12378249 (Genentech, 2025) are described below.

The target of experiment [1] is Mitogen-activated protein kinase kinase kinase kinase 1 (Homo sapiens, UniProt Q92918). The experiment can be described thus: HPK1 Lantha Binding Assay (“Lanth”). The method, then:
(§1) Assay Condition:The following assay concentrations and times were used: 2 nM HPK1, 2 nM Eu-Anti-GST Ab, and 15 nM Tracer222, with 60 min incubation time.HPK Lantha Binding Assay:For the binding assay, 4 ul 2X HPK1 and Eu-anti-GST antibody were added to each well of the assay plate using a Multidrop reagent dispenser. The solutions were incubated in a 23 C incubator for 1 h. To each well of the assay plate was added 4 ul 2× Tracer-222 using a Multidrop reagent dispenser. The solutions were again incubated in a 23 C incubator for 1 h. The results of the assay were read using an Envision plate reader with the following parameters:TR_FRET, 340ex/615 and 665em; 100 usec Delay; and 200 usec integration.

Experiment [2] deals with T1, Mitogen-activated protein kinase kinase kinase kinase 1 [T165E,S171E] (Homo sapiens, UniProt Q92918, S171E/T165E).
T1 construct: gene MAP4K1
The experiment can be described thus: HPK1 Lantha Binding Assay (“Lanth”). The method, then: as §1

Each structure is given as a SMILES string.

Mitogen-activated protein kinase kinase kinase kinase 1, sequence (Q92918 whole entry): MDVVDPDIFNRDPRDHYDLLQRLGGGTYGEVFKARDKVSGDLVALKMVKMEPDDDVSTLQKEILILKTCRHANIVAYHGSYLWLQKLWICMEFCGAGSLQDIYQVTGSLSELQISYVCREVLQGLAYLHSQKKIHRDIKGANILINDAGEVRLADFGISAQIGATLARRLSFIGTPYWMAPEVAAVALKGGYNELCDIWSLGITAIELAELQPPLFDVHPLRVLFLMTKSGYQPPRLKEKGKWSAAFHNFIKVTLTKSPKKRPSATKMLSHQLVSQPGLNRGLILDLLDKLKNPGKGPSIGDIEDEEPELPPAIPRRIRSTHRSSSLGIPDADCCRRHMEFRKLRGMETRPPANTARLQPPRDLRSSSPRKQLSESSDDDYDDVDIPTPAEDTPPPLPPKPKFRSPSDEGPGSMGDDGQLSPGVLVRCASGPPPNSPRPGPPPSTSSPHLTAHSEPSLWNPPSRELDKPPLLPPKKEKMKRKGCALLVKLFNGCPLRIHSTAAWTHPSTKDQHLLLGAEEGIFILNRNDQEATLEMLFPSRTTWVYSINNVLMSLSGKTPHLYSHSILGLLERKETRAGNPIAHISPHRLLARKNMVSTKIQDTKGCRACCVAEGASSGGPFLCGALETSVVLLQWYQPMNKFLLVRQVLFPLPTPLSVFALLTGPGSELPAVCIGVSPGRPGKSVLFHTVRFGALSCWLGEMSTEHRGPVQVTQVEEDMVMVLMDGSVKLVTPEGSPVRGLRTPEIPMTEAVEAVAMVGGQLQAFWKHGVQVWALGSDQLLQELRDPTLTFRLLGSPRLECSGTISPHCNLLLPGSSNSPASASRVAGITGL
T1 sequence (Q92918 whole entry T165E/S171E, looked up): as the sequence (Q92918 whole entry) above, with T165E, S171E counted along it

For orientation: Ki means the dissociation constant of the complex between target and ligand, obtained from inhibition or displacement. A higher Ki goes with lower affinity. With `CCc1ccnc(Nc2cc3cc(-c4cnccc4C)ccc3cn2)c1` [US12378249, Compound 105], affinity in experiment [1] was put at a Ki of 6 nM.
As to `Cc1c(N)cncc1-c1cc2cc(Nc3cc4n(n3)CC(=O)N(CCN3CC(O)C3)CC4)ncc2cc1F` [US12378249, Compound 165], the Ki in experiment [2] turned out to be 0.013 nM.
